From the supplement of paper PMC10307832

Key:
Test in all cases: relative viability (nuclei count vs DMSO), 5 days (fraction); higher = more cells survive
[1] = compound: CC1=C(C(=NN1)C)CC2=C(C3=C(S2)N(C(=O)N(C3=O)C)CC(C)C)C(=O)N4C[C@@H](CO4)O + O=C(CCCCCCC(=O)Nc1ccccc1)NO [Vorinostat] (partner 1 µM)
How it was run: (§1)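 Five library-drug doses in √10 steps were combined with a fixed anchor-drug dose, or a single drug was given alone, by pin tool to lung cancer cell lines in 1536-well plates the day after seeding. Nuclei were stained and counted after 5 days. Relative viability is the nuclei count in treated wells over that in vehicle wells, taken as the median of duplicate plates.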

IDH-C35 + Linsitinib = compound: Cc1ccccc1C(C(=O)NC1CCCCC1)N(C(=O)Cn1ccnc1C)c1cccc(F)c1 [IDH-C35] + C[C@]1(O)C[C@@H](c2nc(-c3ccc4ccc(-c5ccccc5)nc4c3)c3c(N)nccn32)C1 [Linsitinib] (partner 1 µM)
How it was run: as §1

[2] = compound: CC1=C(C(=NN1)C)CC2=C(C3=C(S2)N(C(=O)N(C3=O)C)CC(C)C)C(=O)N4C[C@@H](CO4)O + COc1cccc2cc(-c3nc([C@H]4CC[C@H](C(=O)O)CC4)n4ncnc(N)c34)[nH]c12 [OSI-027] (partner 0.5 µM)
How it was run: as §1

IDH-C35 + Navitoclax = compound: Cc1ccccc1C(C(=O)NC1CCCCC1)N(C(=O)Cn1ccnc1C)c1cccc(F)c1 [IDH-C35] + CC1(C)CCC(c2ccc(Cl)cc2)=C(CN2CCN(c3ccc(C(=O)NS(=O)(=O)c4ccc(N[C@H](CCN5CCOCC5)CSc5ccccc5)c(S(=O)(=O)C(F)(F)F)c4)cc3)CC2)C1 [Navitoclax] (partner 0.5 µM)
How it was run: as §1

Cell Line | relative viability ([1]; first compound 0.0025 µM) | relative viability ([1]; first compound 0.007906 µM) | relative viability ([1]; first compound 0.025 µM) | relative viability ([1]; first compound 0.07906 µM) | relative viability ([1]; first compound 0.25 µM) | relative viability (IDH-C35 + Linsitinib; first compound 0.08 µM) | relative viability (IDH-C35 + Linsitinib; first compound 0.253 µM) | relative viability (IDH-C35 + Linsitinib; first compound 0.8 µM) | relative viability (IDH-C35 + Linsitinib; first compound 2.53 µM) | relative viability (IDH-C35 + Linsitinib; first compound 8 µM) | relative viability ([2]; first compound 0.0025 µM) | relative viability ([2]; first compound 0.007906 µM) | relative viability ([2]; first compound 0.025 µM) | relative viability ([2]; first compound 0.07906 µM) | relative viability ([2]; first compound 0.25 µM) | relative viability (IDH-C35 + Navitoclax; first compound 0.08 µM) | relative viability (IDH-C35 + Navitoclax; first compound 0.253 µM) | relative viability (IDH-C35 + Navitoclax; first compound 0.8 µM) | relative viability (IDH-C35 + Navitoclax; first compound 2.53 µM) | relative viability (IDH-C35 + Navitoclax; first compound 8 µM)
HCC-78 | 0.521 | 0.552 | 0.497 | 0.518 | 0.439 | 0.54 | 0.495 | 0.497 | 0.382 | 0.453 | 0.388 | 0.38 | 0.343 | 0.357 | 0.374 | 0.86 | 0.762 | 0.763 | 0.62 | 0.656
HCC-366 | 0.438 | 0.365 | 0.348 | 0.399 | 0.447 | 0.619 | 0.647 | 0.553 | 0.601 | 0.606 | 0.937 | 1.16 | 1.18 | 1.09 | 0.933 | 0.937 | 1.13 | 1.03 | 0.981 | 1.01
HCC-827 | 0.805 | 0.91 | 0.837 | 0.843 | 1.01 | 0.99 | 0.889 | 0.98 | 0.837 | 1 | 0.812 | 0.793 | 0.756 | 0.759 | 0.952 | 0.975 | 0.997 | 1.05 | 0.949 | 1.03
HOP-62 | 0.575 | 0.895 | 0.496 | 0.631 | 0.65 | 1.15 | 0.803 | 0.924 |  | 1.01 | 0.896 | 0.849 | 0.756 | 0.763 | 0.909 | 1.07 | 0.939 | 0.84 | 0.974 | 0.891
IA-LM | 0.91 | 1.19 |  | 0.942 | 1.08 | 0.876 | 0.776 | 0.628 | 0.621 | 0.589 |  |  |  |  |  | 0.711 | 0.838 | 0.798 | 0.742 | 0.707
LC-2-ad | 0.696 | 0.658 | 0.718 | 0.705 | 0.729 | 0.867 | 0.829 | 0.774 | 0.875 | 0.886 | 0.952 | 0.782 | 0.973 | 0.934 | 0.821 | 0.544 | 0.589 | 0.467 | 0.427 | 0.331
LCLC-97TM1 | 0.984 | 1.03 | 0.575 | 0.72 | 0.776 | 0.209 | 0.194 | 0.179 |  | 0.193 | 0.665 | 0.515 | 0.513 | 0.548 | 0.564 | 0.4 | 0.474 | 0.367 |  | 0.35
LCLC-103H | 0.871 | 0.896 | 0.792 | 0.772 | 0.689 | 1.21 | 1.01 | 0.98 | 1.13 | 1.07 | 0.529 | 0.466 | 0.467 | 0.496 | 0.512 |  |  |  |  | 
NCI-H358 | 0.704 | 0.575 | 0.677 | 0.803 | 0.836 | 0.746 | 0.719 | 0.786 | 0.713 | 0.649 | 0.679 | 0.724 | 0.845 | 0.895 | 0.854 |  |  |  |  | 
NCI-H522 | 0.963 | 1.03 | 0.682 | 0.551 | 0.551 |  |  |  |  |  | 0.804 | 0.624 | 0.608 | 0.45 | 0.546 |  |  |  |  | 
NCI-H650 | 0.549 | 0.516 | 0.393 | 0.35 | 0.545 | 1.09 | 1.05 | 0.799 |  | 0.771 | 0.637 | 0.509 | 0.501 | 0.451 | 0.647 |  |  |  |  | 
NCI-H661 | 0.787 | 0.863 | 0.746 | 0.805 | 0.834 | 0.625 | 0.54 | 0.51 | 0.54 | 0.644 | 0.783 | 0.636 | 0.663 | 0.677 | 0.862 |  |  |  |  | 
NCI-H1299 |  |  |  |  |  | 1.11 | 0.969 | 0.976 | 1 | 0.957 |  |  |  |  |  | 1.02 | 1.08 | 1.02 | 1.05 | 1.03
NCI-H1563 |  |  |  |  |  | 1.15 | 1.3 | 1.15 | 1.2 | 1.16 | 0.802 | 0.76 | 0.738 | 0.779 | 0.741 |  |  |  |  | 
NCI-H1623 |  |  |  |  |  |  |  |  |  |  | 0.525 | 0.414 | 0.447 | 0.424 | 0.506 |  |  |  |  | 
NCI-H1648 | 0.787 | 0.413 | 0.42 | 0.406 | 0.441 |  |  |  |  |  | 0.238 | 0.247 | 0.303 | 0.253 | 0.267 |  |  |  |  | 
NCI-H1650 | 0.529 | 0.583 | 0.49 | 0.713 | 0.568 |  |  |  |  |  | 0.788 | 0.657 | 0.755 | 0.817 | 0.631 | 1.23 | 1.21 | 1.19 | 1.24 | 1.17
NCI-H1703 |  |  |  |  |  | 0.821 | 0.787 | 0.632 | 0.778 | 0.536 |  |  |  |  |  | 1.05 | 1.29 | 1.49 | 1.11 | 0.897
NCI-H1792 |  |  |  |  |  | 0.522 | 0.508 | 0.486 | 0.555 | 0.66 | 0.739 | 0.816 | 0.717 | 0.645 | 0.652 | 0.637 | 0.593 | 0.619 | 0.621 | 0.646
NCI-H2170 | 0.82 | 0.792 | 0.779 | 0.749 | 0.864 |  |  |  |  |  | 0.736 | 0.792 | 0.687 | 0.726 | 0.681 | 0.626 | 0.535 | 0.595 | 0.479 | 0.627
NCI-H2342 | 0.611 | 0.766 | 0.709 | 0.656 | 0.644 |  |  |  |  |  | 0.588 | 0.584 | 0.624 | 0.618 | 0.587 |  |  |  |  | 
SW 900 | 0.558 | 0.55 | 0.534 | 0.504 | 0.445 |  |  |  |  |  | 0.671 | 0.66 | 0.55 | 0.659 | 0.54 |  |  |  |  | 
